Data taken from publication PMC4594923, “Food Polyphenols Fail to Cause a Biologically Relevant Reduction of COX-2 Activity” (PLoS ONE, 2015).
Where “and” joins values, the source holds several entries; their conditions need not be identical. Equal entries are not always repeated. Entries after “also recorded” stand apart in the source; their conditions may differ.

How the values were obtained:
[1] = molecular target: T1, COX–2 (Homo sapiens, UniProt P35354); test: PGE2 formation in LPS stimulated primary human monocytes (24 h, LC-MS); format: cell-based; settings: for IC50: read-out: IC50 (95% CI), primary monocytes
T1 sequence (P35354 18-604): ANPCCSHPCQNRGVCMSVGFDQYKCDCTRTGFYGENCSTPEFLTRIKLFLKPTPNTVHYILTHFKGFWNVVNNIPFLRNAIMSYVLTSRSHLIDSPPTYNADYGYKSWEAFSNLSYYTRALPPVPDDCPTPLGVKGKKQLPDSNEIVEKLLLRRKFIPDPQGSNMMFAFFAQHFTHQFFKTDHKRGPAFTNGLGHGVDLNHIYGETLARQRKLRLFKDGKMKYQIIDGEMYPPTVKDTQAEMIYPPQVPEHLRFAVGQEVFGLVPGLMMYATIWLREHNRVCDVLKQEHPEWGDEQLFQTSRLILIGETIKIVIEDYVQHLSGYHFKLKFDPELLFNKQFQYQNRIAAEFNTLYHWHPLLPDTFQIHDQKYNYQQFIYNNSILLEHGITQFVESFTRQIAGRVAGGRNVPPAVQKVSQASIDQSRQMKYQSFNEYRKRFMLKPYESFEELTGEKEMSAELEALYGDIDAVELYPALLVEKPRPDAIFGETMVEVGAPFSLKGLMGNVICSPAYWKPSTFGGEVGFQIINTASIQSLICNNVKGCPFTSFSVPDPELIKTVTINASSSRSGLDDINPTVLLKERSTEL
Experimental: (§1) The in vitro assays were performed as described [6, 16, 18] and COX metabolites were quantified by LC-MS [18].
(§2) Primary human monocytes were freshly isolated from human blood. Blood was collected from healthy human subjects after written informed consent was obtained. […] After 24 h, the supernatant was sampled for LC-MS and cells were collected for the COX–2 expression analysis by Western Blotting.
(§3) GraphPad Prism 5.0 (GraphPad Software, San Diego, USA) was used for data analysis, the fitting of dose response curves and calculation of the IC50 values. Statistical differences were determined by Dunnetts test (LPS vs. other groups).

[2] = molecular target: T1, COX–2; test: cell-free COX–2 enzyme assay (PGE2 formation, LC-MS); format: biochemical; settings: for IC50 / IC50 (95% CI), COX–2 enzyme assay: calculated based on PGE2, n = 3; for IC50: read-out: IC50 (95% CI), COX–2 enzyme assay
Experimental: as §1, §2, §3

[3] = system: COX–2; settings: cited from earlier work
[4] = cited from earlier work
[5] = molecular target: T1, COX–2; test: PGE2 formation in HCA–7 cells (24 h, LC-MS); format: cell-based; settings: for IC50 (95% CI), HCA-7 cell line: calculated based on PGE2, n = 3, 24 h; for changes of PGE2 formation in HCA–7 cells: non-cytotoxic concentrations, 24 h
Experimental: as §1
(§4) HCA–7 cells were incubated with sub-cytotoxic concentrations of the polyphenols dissolved in Tris buffered DMEM medium. Cytotoxicity of the polyphenols was evaluated by the lactate dehydrogenase leakage test (Cyto-Tox-ONE, Promega Mannheim, Germany). After 24 h the supernatant was collected for LC-MS analysis and the cells were harvested to analyze the COX–2 expression by Western Blotting.
After 24 h, the supernatant was sampled for LC-MS and cells were collected for the COX–2 expression analysis by Western Blotting.
as §3

[6] = system: COX–2 protein; test: COX–2 expression in HCA–7 cells (Western Blot); format: cell-based, human; settings: 24 h, vs. control
Experimental: as §4

[7] = molecular target: T2, ovine recombinant COX–1 (Ovis aries, UniProt P05979); test: cell-free COX–1 enzyme assay (PGE2 formation, LC-MS); format: biochemical; set-up: purchased Cayman Chemicals/ Biomol, Hamburg, Germany; settings: for IC50 / IC50 (95% CI), COX–1 enzyme assay: calculated based on PGE2, n = 3; for IC50: read-out: IC50 (95% CI), COX–1 enzyme assay
T2 sequence (P05979 25-600): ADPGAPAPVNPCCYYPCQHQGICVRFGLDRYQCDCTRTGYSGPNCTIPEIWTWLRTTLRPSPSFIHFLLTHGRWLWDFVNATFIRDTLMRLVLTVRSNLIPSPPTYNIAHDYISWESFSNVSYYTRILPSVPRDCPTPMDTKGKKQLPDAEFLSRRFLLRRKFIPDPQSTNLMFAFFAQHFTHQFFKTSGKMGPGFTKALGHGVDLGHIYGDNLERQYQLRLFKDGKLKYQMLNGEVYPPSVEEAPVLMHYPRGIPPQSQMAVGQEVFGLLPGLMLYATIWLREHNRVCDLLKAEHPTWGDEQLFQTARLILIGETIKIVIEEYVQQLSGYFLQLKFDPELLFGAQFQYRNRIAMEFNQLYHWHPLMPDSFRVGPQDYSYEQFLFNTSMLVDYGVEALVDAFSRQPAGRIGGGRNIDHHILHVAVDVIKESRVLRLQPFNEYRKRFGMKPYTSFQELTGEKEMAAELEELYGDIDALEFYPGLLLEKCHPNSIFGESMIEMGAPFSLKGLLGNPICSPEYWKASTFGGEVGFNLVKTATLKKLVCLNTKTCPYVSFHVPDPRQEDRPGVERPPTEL
Experimental: as §1, §2, §3

[8] = system: COX–2 protein; test: COX–2 expression in LPS stimulated primary human monocytes (Western Blot); settings: 24 h, vs. control
Experimental: as §2

[9] = system: COX–2 protein; settings: cited from earlier work
[10] = LPS stimulated, calculated based on PGE2, n = 3, 24 h

IC50 [2] [µM] | IC50 (95% CI), HCA-7 cell line [5] | IC50 [7] [µM] | IC50 [1, 10] [µM] | IC50 (95% CI), COX–2 enzyme assay [2] | IC50 (95% CI), COX–1 enzyme assay [7] | Compound | effect on COX–2 dependent PGE2 formation, cell-free enzyme assay [2] | changes of PGE2 formation in HCA–7 cells [5] | COX-2 Expression, HCA-7 cell line [6] | effect on COX–1 dependent PGE2 formation, cell-free enzyme assay [7] | COX-2 Expression, primary monocytes [8] | COX–2 protein levels, LPS stimulated RAW 264.7 cells [9] | other results
32 | no effect (up to 10 μM) | 17 |  |  |  | O=C(O[C@@H]1Cc2c(O)cc(O)cc2O[C@@H]1c1cc(O)c(O)c(O)c1)c1cc(O)c(O)c(O)c1 [EGCG, epigallocatechingallat] | dose-dependently decreased; also recorded: inhibited | no or only slight | no effect(up to 10 μM) | dose-dependently decreased; also recorded: inhibited | Decreased COX–2 protein levels and 10 μM:COX–2 ↓ |  | IC50 (95% CI), primary monocytes [1, 10]: no effect(up to 10 μM); PGE2 formation / levels, RAW 264.7 cells [3]: lack of effect; maximal plasma concentrations ([4]; in vivo): 0.13 to 0.33 µM; COX–2 (protein) levels, RAW 264.7 cells [9]: slight increase
 |  |  | 29 | no effect (up to 100 μM) | no effect (up to 100 μM) | O=C1C[C@@H](c2ccc(O)cc2)Oc2cc(O)cc(O)c21 [Naringenin, naringenin] | no effect | affected | 100 μM:COX–2 ↓ | no effect | 100, 30 μM:COX–2 ↓ | decreased COX–2 protein levels | plasma peak level, total naringenin (free and conjugated form) ([4]; humans, ingestion of grapefruit juice (0.2 g total naringenin)): 6 µM; inhibition at 100 µM ([5]; HCA-7, 100 μM, read-out: inhibition, HCA-7 cell line): 53%; COX-2 Expression, HCA-7 cell line ([6]; listed as naringenin): decreased COX–2 expression; COX-2 Expression, primary monocytes ([8]; listed as naringenin): Decreased COX–2 protein levels
 |  |  | 24 | no effect (up to 100 μM) | no effect (up to 100 μM) | COc1ccc(-c2cc(=O)c3c(OC)c(OC)c(OC)c(OC)c3o2)cc1OC [Nobiletin, nobiletin] | no effect | no or only slight; also recorded: affected | 100 μM:COX–2 ↓ | no effect | no effect(up to 100 μM) | decreased COX–2 protein levels | inhibition, HCA-7 cell line ([5]; up to 100 μM): inhibition < 50%(up to 100 μM); COX-2 Expression, HCA-7 cell line ([6]; listed as nobiletin): decreased COX–2 expression
22 | no effect (up to 1 μM) | 4 |  |  |  | hopeaphenol | dose-dependently decreased; also recorded: inhibited | no or only slight | no effect (up to 1 μM) | dose-dependently decreased; also recorded: inhibited | 1 μM: COX–2 ↓ |  | inhibition, primary monocytes ([1]; up to 1 μM): inhibition < 50% (up to 1 μM); COX-2 Expression, primary monocytes ([8]; listed as hopeaphenol): Decreased COX–2 protein levels

Compound | IC50 [2] [µM] | IC50 (95% CI), HCA-7 cell line [5] | IC50 [7] [µM] | IC50 [1, 10] [µM] | IC50 (95% CI), COX–2 enzyme assay [2] | IC50 (95% CI), COX–1 enzyme assay [7] | effect on COX–2 dependent PGE2 formation, cell-free enzyme assay [2] | changes of PGE2 formation in HCA–7 cells [5] | COX-2 Expression, HCA-7 cell line [6] | effect on COX–1 dependent PGE2 formation, cell-free enzyme assay [7] | COX-2 Expression, primary monocytes [8] | COX–2 protein levels, LPS stimulated RAW 264.7 cells [9] | other results
COc1c(O)cc(O)c2c(=O)cc(-c3ccccc3)oc12 [Wogonin, wogonin] |  |  |  |  |  | no effect (up to 100 μM) |  |  |  | no effect |  |  | IC50 ([3]; read-out: IC50, LPS stimulated murine macrophages): 0.3 µM
